Species: Rattus norvegicus
Assay: Open TG-GATES - Regimen: Single
Assay type: toxicity, organism-based, Sprague-Dawley
Parameters: regimen Single, gender Male, age 6 weeks
Conditions: in vivo, po, 0 mg/kg, route gavage, dose level Control; for APTT / Bas / Eos / Fbg / Hb / Ht / Lym / MCH / MCHC / MCV / Mono / Neu / PT / Plat / RBC / Ret / WBC: tissue Blood; for KIDNEY_L / KIDNEY_R / KIDNEY_TOTAL: tissue Kidney; for LIVER: tissue Liver; for A/G / ALP / ALT / AST / BUN / CRE / Ca / Cl / DBIL / GLC / IP / K / LDH / Na / PL / RALB / TBIL / TC / TG / TP / gamma-GTP: tissue Plasma

Molecule `CCOC(=O)C(C)(C)Oc1ccc(Cl)cc1` [CLOFIBRATE] has a TERMINAL_BW (3 h) of 228.9 g, an APTT (3 h) of 18.8 s and a Bas (3 h) of 0%. It also gave an Eos (3 h) of 0.8%, a Fbg (3 h) of 234.6 mg/dL and a Hb (3 h) of 13.3 g/dL. The Ht (3 h) was 38.4%, the Lym (3 h) was 81.8% and the MCH (3 h) was 21.5 pg. For the same molecule, the MCHC (3 h) was 34.9%, the MCV (3 h) was 61.6 fL and the Mono (3 h) was 2.4%. For the same molecule, the Neu (3 h) was 14.4%, the PT (3 h) was 12.2 s and the Plat (3 h) was 137.2 x10_4/uL. It also gave an RBC (3 h) of 623.6 x10_4/ul, a Ret (3 h) of 7.6% and a WBC (3 h) of 86.9 x10_2/uL. It also gave a KIDNEY_L (3 h) of 0.9 g, a KIDNEY_R (3 h) of 0.9 g and a KIDNEY_TOTAL (3 h) of 1.8 g. The LIVER (3 h) was 10.8 g, the A/G (3 h) was 1.6 and the ALP (3 h) was 1250.4 IU/L. For the same molecule, the ALT (3 h) was 37.6 IU/L, the AST (3 h) was 75.6 IU/L and the BUN (3 h) was 11.6 mg/dL. It also gave a CRE (3 h) of 0.4 mg/dL, a Ca (3 h) of 11 mg/dL and a Cl (3 h) of 101.8 meq/L. It also gave a DBIL (3 h) of 0.4 mg/dL, a GLC (3 h) of 193.4 mg/dL and an IP (3 h) of 8.4 mg/dL. It also gave a K (3 h) of 3.8 meq/L, an LDH (3 h) of 218.8 IU/L and a Na (3 h) of 139 meq/L. The PL (3 h) was 184 mg/dL, the RALB (3 h) was 3.6 g/dL and the TBIL (3 h) was 0.4 mg/dL. For the same molecule, the TC (3 h) was 79.8 mg/dL, the TG (3 h) was 233.2 mg/dL and the TP (3 h) was 5.8 g/dL. The gamma-GTP (3 h) was 1 IU/L, the TERMINAL_BW (6 h) was 225.4 g and the APTT (6 h) was 18.9 s. It also gave a Bas (6 h) of 0%, an Eos (6 h) of 1% and a Fbg (6 h) of 229.6 mg/dL. For the same molecule, the Hb (6 h) was 13.7 g/dL, the Ht (6 h) was 39.7% and the Lym (6 h) was 76.8%. For the same molecule, the MCH (6 h) was 20.9 pg, the MCHC (6 h) was 34.5% and the MCV (6 h) was 60.7 fL. For the same molecule, the Mono (6 h) was 3.4%, the Neu (6 h) was 18.4% and the PT (6 h) was 12.5 s. It also gave a Plat (6 h) of 131.5 x10_4/uL, an RBC (6 h) of 654.6 x10_4/ul and a Ret (6 h) of 7.7%. It also gave a WBC (6 h) of 91.8 x10_2/uL, a KIDNEY_L (6 h) of 1 g and a KIDNEY_R (6 h) of 1 g. The KIDNEY_TOTAL (6 h) was 2 g, the LIVER (6 h) was 10 g and the A/G (6 h) was 1.7. The ALP (6 h) was 1002.8 IU/L, the ALT (6 h) was 31.2 IU/L and the AST (6 h) was 67.2 IU/L. For the same molecule, the BUN (6 h) was 8.6 mg/dL, the CRE (6 h) was 0.3 mg/dL and the Ca (6 h) was 10.7 mg/dL. The Cl (6 h) was 103.2 meq/L, the DBIL (6 h) was 0.1 mg/dL and the GLC (6 h) was 192.2 mg/dL. The IP (6 h) was 8.8 mg/dL, the K (6 h) was 3.9 meq/L and the LDH (6 h) was 224 IU/L. The Na (6 h) was 140.4 meq/L, the PL (6 h) was 157.6 mg/dL and the RALB (6 h) was 3.5 g/dL. It also gave a TBIL (6 h) of 0.2 mg/dL, a TC (6 h) of 76.2 mg/dL and a TG (6 h) of 86 mg/dL. It also gave a TP (6 h) of 5.7 g/dL, a gamma-GTP (6 h) of 1 IU/L and a TERMINAL_BW (9 h) of 221.7 g. It also gave an APTT (9 h) of 18.1 s, a Bas (9 h) of 0% and an Eos (9 h) of 1%. The Fbg (9 h) was 234.4 mg/dL, the Hb (9 h) was 13.4 g/dL and the Ht (9 h) was 38.5%. The Lym (9 h) was 73.2%, the MCH (9 h) was 20.8 pg and the MCHC (9 h) was 34.9%. It also gave an MCV (9 h) of 59.7 fL, a Mono (9 h) of 2.6% and a Neu (9 h) of 22.8%. It also gave a PT (9 h) of 13 s, a Plat (9 h) of 137.3 x10_4/uL and an RBC (9 h) of 644.4 x10_4/ul. It also gave a Ret (9 h) of 7.1%, a WBC (9 h) of 78.9 x10_2/uL and a KIDNEY_L (9 h) of 0.9 g. The KIDNEY_R (9 h) was 1 g, the KIDNEY_TOTAL (9 h) was 1.9 g and the LIVER (9 h) was 9 g. It also gave an A/G (9 h) of 1.6, an ALP (9 h) of 1006.6 IU/L and an ALT (9 h) of 27 IU/L. It also gave an AST (9 h) of 63.6 IU/L, a BUN (9 h) of 11.2 mg/dL and a CRE (9 h) of 0.4 mg/dL. The Ca (9 h) was 10.2 mg/dL, the Cl (9 h) was 103 meq/L and the DBIL (9 h) was 0.082 mg/dL. The GLC (9 h) was 204.6 mg/dL, the IP (9 h) was 10.2 mg/dL and the K (9 h) was 3.7 meq/L. The LDH (9 h) was 223.8 IU/L, the Na (9 h) was 141.2 meq/L and the PL (9 h) was 136.8 mg/dL. It also gave an RALB (9 h) of 3.3 g/dL, a TBIL (9 h) of 0.1 mg/dL and a TC (9 h) of 64.2 mg/dL. The TG (9 h) was 68.2 mg/dL, the TP (9 h) was 5.5 g/dL and the gamma-GTP (9 h) was 0.8 IU/L. It also gave a TERMINAL_BW (24 h) of 236.7 g, an APTT (24 h) of 18.6 s and a Bas (24 h) of 0%. The Eos (24 h) was 1%, the Fbg (24 h) was 230.2 mg/dL and the Hb (24 h) was 13.7 g/dL. For the same molecule, the Ht (24 h) was 39.5%, the Lym (24 h) was 80.8% and the MCH (24 h) was 20.7 pg. The MCHC (24 h) was 34.5%, the MCV (24 h) was 60 fL and the Mono (24 h) was 2.4%. It also gave a Neu (24 h) of 15.8%, a PT (24 h) of 12.5 s and a Plat (24 h) of 127.3 x10_4/uL. It also gave an RBC (24 h) of 659.8 x10_4/ul, a Ret (24 h) of 6.3% and a WBC (24 h) of 75.3 x10_2/uL. For the same molecule, the KIDNEY_L (24 h) was 1 g, the KIDNEY_R (24 h) was 1 g and the KIDNEY_TOTAL (24 h) was 2 g. It also gave an LIVER (24 h) of 10.9 g, an A/G (24 h) of 1.5 and an ALP (24 h) of 1006.2 IU/L. The ALT (24 h) was 34 IU/L, the AST (24 h) was 66.4 IU/L and the BUN (24 h) was 14.4 mg/dL. For the same molecule, the CRE (24 h) was 0.4 mg/dL, the Ca (24 h) was 10.7 mg/dL and the Cl (24 h) was 102.2 meq/L. The DBIL (24 h) was 0.094 mg/dL, the GLC (24 h) was 191.2 mg/dL and the IP (24 h) was 7 mg/dL. For the same molecule, the K (24 h) was 3.9 meq/L, the LDH (24 h) was 198.2 IU/L and the Na (24 h) was 140 meq/L. The PL (24 h) was 147.8 mg/dL, the RALB (24 h) was 3.3 g/dL and the TBIL (24 h) was 0.2 mg/dL. The TC (24 h) was 68.4 mg/dL, the TG (24 h) was 125.4 mg/dL and the TP (24 h) was 5.5 g/dL. It also gave a gamma-GTP (24 h) of 1 IU/L.

From ChEMBL document CHEMBL3885861, “Open TG-GATES”
